Consider 4 compounds from ChEMBL document CHEMBL5357003, “A Simple Chiral 1H NMR Method for the Discrimination of (R)- and (S)-Cannabichromene in Complex Natural Mixtures and Their Effects on TRPA1 Activity” (J Nat Prod, 2024).

The target in data set [1] is Transient receptor potential cation channel subfamily A member 1 (Homo sapiens) (UniProt O75762). The data set is described as follows: Agonist activity at human TRPA1 expressed in HEK293E cells assessed as calcium mobilization measured every 2 sec for 150 sec by microplate reader analysis. The class given is cell-based. The following applies: filed as agonist.
Sequence of Transient receptor potential cation channel subfamily A member 1 (Homo sapiens) (O75762 whole entry): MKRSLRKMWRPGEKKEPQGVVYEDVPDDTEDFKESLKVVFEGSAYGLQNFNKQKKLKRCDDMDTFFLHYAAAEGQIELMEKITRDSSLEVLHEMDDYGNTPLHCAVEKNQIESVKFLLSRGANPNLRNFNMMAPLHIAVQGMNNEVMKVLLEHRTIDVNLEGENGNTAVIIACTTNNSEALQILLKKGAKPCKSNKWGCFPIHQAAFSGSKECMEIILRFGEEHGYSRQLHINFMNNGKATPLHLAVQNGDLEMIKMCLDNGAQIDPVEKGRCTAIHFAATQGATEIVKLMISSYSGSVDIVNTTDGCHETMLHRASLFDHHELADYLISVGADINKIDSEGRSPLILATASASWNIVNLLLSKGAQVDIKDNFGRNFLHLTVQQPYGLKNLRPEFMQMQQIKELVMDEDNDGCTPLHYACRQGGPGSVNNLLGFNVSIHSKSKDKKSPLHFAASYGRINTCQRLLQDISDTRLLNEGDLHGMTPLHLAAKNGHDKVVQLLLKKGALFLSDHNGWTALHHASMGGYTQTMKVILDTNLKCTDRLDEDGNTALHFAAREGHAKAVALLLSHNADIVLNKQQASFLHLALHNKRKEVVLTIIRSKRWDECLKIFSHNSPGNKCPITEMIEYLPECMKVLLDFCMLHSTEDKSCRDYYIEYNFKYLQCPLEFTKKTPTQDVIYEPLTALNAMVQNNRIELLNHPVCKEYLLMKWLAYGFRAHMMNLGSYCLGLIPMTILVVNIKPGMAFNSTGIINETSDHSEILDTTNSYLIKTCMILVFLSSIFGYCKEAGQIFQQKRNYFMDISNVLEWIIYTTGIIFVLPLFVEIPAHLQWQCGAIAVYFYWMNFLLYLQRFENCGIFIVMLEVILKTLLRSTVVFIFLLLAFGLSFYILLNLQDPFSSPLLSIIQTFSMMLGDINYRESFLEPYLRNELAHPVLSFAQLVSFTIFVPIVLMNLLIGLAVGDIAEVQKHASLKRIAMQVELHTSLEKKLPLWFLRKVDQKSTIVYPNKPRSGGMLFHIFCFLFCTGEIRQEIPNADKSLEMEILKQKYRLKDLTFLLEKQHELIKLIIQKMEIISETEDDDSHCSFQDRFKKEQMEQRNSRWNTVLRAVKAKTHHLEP
Data set [2] has as its target Transient receptor potential cation channel subfamily A member 1 (Rattus norvegicus) (UniProt Q6RI86). The data set is described as follows: Agonist activity at rat TRPA1 expressed in HEK293E cells assessed as calcium mobilization measured every 2 sec for 150 sec by microplate reader analysis. The class given is cell-based. To be noted: filed as agonist.
Data set [3] can be described thus: Cytotoxicity against human T24 cells by XTT assay. The class given is toxicity, cell-based, T-24.
For data set [4], the target named is Transient receptor potential cation channel subfamily A member 1 (Rattus norvegicus, UniProt Q6RI86). Kind of data set: Agonist activity at rat TRPA1 expressed in HEK293 cells. The format is cell-based.
Sequence of Transient receptor potential cation channel subfamily A member 1 (Q6RI86 whole entry): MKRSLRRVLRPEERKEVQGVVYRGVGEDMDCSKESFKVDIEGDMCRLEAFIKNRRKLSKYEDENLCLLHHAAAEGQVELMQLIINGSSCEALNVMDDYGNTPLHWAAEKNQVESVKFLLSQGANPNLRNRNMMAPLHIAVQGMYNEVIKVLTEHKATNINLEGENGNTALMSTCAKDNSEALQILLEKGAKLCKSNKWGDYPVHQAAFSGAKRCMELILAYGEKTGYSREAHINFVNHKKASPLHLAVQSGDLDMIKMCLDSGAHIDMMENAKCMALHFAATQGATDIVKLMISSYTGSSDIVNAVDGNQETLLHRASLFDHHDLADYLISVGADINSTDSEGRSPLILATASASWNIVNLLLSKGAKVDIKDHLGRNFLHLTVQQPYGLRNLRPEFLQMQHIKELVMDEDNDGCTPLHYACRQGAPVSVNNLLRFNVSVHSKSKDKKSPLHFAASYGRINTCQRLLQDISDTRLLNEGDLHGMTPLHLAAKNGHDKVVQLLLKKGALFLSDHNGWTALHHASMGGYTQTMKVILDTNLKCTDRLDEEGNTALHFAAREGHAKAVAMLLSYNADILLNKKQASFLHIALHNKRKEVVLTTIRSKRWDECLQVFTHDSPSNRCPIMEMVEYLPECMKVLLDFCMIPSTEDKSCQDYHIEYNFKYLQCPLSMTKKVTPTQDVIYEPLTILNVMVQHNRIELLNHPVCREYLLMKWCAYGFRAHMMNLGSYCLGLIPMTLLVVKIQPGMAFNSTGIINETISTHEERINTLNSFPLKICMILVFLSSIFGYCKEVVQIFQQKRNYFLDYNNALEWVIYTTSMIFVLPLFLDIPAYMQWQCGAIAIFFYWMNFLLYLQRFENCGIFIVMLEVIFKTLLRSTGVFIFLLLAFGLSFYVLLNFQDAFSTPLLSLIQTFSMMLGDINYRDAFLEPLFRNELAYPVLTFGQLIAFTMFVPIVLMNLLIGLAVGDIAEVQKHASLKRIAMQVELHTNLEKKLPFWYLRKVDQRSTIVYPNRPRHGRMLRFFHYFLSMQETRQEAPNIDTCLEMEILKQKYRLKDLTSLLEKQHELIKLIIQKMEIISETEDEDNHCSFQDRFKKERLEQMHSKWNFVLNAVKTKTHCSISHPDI

Converted amounts (≈) assume the structure as drawn. The source made the active and inactive calls. No cut-off for these calls is given here.

Sequence of Transient receptor potential cation channel subfamily A member 1 (Rattus norvegicus) (Q6RI86 whole entry): as above

Consider `CCCCCc1cc(O)c2c(c1)O[C@](C)(CCC=C(C)C)C=C2`, for which the outcome in data set [1] and in data set [2] was Active.

Turning to `CCCCCc1cc(O)c2c(c1)O[C@@](C)(CCC=C(C)C)C=C2`, the outcome in data set [1] and in data set [2] was Active.

Turning to `CCCCCc1cc(O)c2c(c1)OC(C)(CCC=C(C)C)C=C2` (racemic) [CANNABICHROMENE], the IC50 in data set [3] was determined as 13 µg/mL (≈ 41.5 µM). In data set [4], this compound yielded an EC50 of 90 nM.

For `CCCCCc1cc(O)c2c(c1)OC(C)(C)[C@@H]1CCC(C)=C[C@@H]21` [DRONABINOL], the IC50 in data set [3] was found to be 13 µg/mL (≈ 41.5 µM).
